From the METLIN SMRT retention time set (Domingo-Almenara et al. 2019)

Test: gradient 5% acetonitrile 3 min, to 50% in 2 min, to 85% in 15 min, held 3 min, 100 µL/min
Settings: column: Zorbax Extend-C18 2.1 x 50 mm; eluents: water / acetonitrile, 0.1% formic acid
How it was run: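 The system's dead and dwell volumes were 40 μL and 900 μL, with a Zorbax Extend-C18 column (2.1 × 50 mm, 1.8 μm) run at 100 μL/min in water and acetonitrile containing 0.1% formic acid each. Pure standards were analyzed in mixtures of ~100 molecules by HPLC–quadrupole time-of-flight mass spectrometry in positive and negative ionization mode. Retention time was assigned from computationally picked, manually inspected adduct peaks.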

| SMILES | RP-LC retention time [s] |
| --- | --- |
| O=C(Nc1ccc(F)cc1)N1CCC(n2c(-c3ccco3)nc3cccnc32)C1 (centres undefined) | 749 |
| COc1ccc(NC(=O)CN2C(=O)CC(c3cccs3)=Nc3ccccc32)cc1 | 899 |
| Cc1ccccc1-c1noc(Cn2nc(-c3ccc4c(c3)OCO4)ccc2=O)n1 | 943 |
| CCCNC(=O)c1ccc2ncn(C)c(=O)c2c1 | 596 |
| COc1ccccc1CNC(=O)CCc1nnc2c3cc(-c4ccccc4)nn3ccn12 | 750 |
| COCc1noc([C@@H]2CC(F)(F)CN2S(=O)(=O)c2ccccc2)n1 | 850 |
| CCC(C)NC(=O)N1CCn2nnc(CCC(=O)N3CCOCC3)c2C1 (centres undefined) | 598 |
| CC1(C(=O)NCc2ccc(Cl)cc2)CN(S(C)(=O)=O)CC(=O)N1CCc1ccccc1 (centres undefined) | 906 |
| CCOc1cc(C(=O)Nc2cc(-c3cn4cccnc4n3)ccc2C)cc(OCC)c1OCC | 780 |
| CSc1ccc(-c2nc3nc(C)cc(C)n3c2Nc2ccccc2)cc1 | 755 |
| COC(=O)c1cnc2nc(C)ccc2c1Nc1cccc(Br)c1 | 718 |
| COc1ccc(-c2cc3nn(CC(=O)Nc4ccc(F)cc4Cl)c(=O)n3c(C)n2)cc1 | 970 |
| CCN(CC)CCNC(=O)CN1C(=O)C2CCCCN2c2ccc(C(=O)N3CCCC3)cc21 (centres undefined) | 614 |
| Cc1nn(-c2ccc(-c3ccccc3)nn2)c(C)c1S(=O)(=O)NCc1ccc2c(c1)OCO2 | 978 |
| O=C(NCC1CCCO1)C1CCCN(c2ccnc(-c3ccccc3)n2)C1 (centres undefined) | 571 |
| CCc1nc2cc3c(cc2n1CC(=O)Nc1ccc(OC)cc1)OCCO3 | 640 |
| O=C(CNC(=O)c1c[nH]c2ccccc12)NCCC1=CCCCC1 | 710 |
| COc1ccc(NC(=O)Nc2ccc3nc(C)n(-c4ccccc4)c(=O)c3c2)cc1OC | 679 |
| O=C(Nc1ccccc1F)C1CCN(C(=O)c2ncn3c2COC(c2ccc(F)cc2)C3)CC1 (centres undefined) | 738 |
| CCCNC(=O)N1CC(Oc2ccc(-c3nc(C)no3)cc2)C1 | 745 |
| COc1ccc(CCC(=O)N2CCC[C@@H]2C(=O)NCCc2csc(C)n2)cc1 | 667 |
| COc1ccc(-c2nnc(NC(=O)CSc3nc4ccccc4s3)s2)cc1 | 918 |
| O=C(NC1CCN(c2cc(-c3ccccc3)[nH]n2)C1)c1cccc(Cl)c1 (centres undefined) | 763 |

| SMILES | RP-LC retention time [s] |
| --- | --- |
| O=C(Cn1nc2nc(N3CCCC3)ccn2c1=O)NCc1ccc(F)cc1Cl | 688 |
| O=C(Cc1nnc2c(-c3nc(C4CC4)no3)cccn12)N1CCCCC1 | 616 |
| COc1ccc(CC(=O)NCC2(c3cccs3)CC2)cc1OC | 736 |
| Cc1cnn(Cc2nc(-c3ccc(NC(=O)c4sccc4C)cc3)oc2C)c1 | 938 |
| CCOc1ccc(NC(=O)c2c(O)c3cccnc3n(-c3ccc(F)cc3)c2=O)cc1 | 1280 |
| Cc1ccc(-c2cn3c(CC(=O)NCc4ccc(Cl)cc4)csc3n2)cc1C | 892 |
| COc1ccc(-c2cn3c(CC(=O)N4CCN(C5CCCCC5)CC4)csc3n2)cc1OC | 594 |
| O=C(NCc1cccc2ccccc12)NCC1CCN(C(=O)COc2ccccc2)CC1 | 770 |
| CCCC(=O)NCCn1c(=O)n(Cc2ccc(C)cc2)c2cccnc21 | 759 |
| O=C(CCc1nc2sc3c(c2c(=O)[nH]1)CCCCC3)N1CCN(C2CCCCC2)CC1 | 610 |
| O=S(=O)(Cc1ccccc1)N1CCC(Oc2nc3ccccc3s2)CC1 | 1060 |
| CC12C=CC(=O)C=C1CCC1C2=CCC2(C)C1CC[C@@H]2C(=O)CN1CCN(c2cc(N3CCCC3)nc(N3CCCC3)n2)CC1 (some centres undefined) | 732 |
| CCOC(=O)c1noc2nc(C)nc(N(C)Cc3ccccc3)c12 | 1060 |
| O=C(Cn1cnc2nc(N3CCC(C(=O)NC4CC4)CC3)sc2c1=O)NCCC1=CCCCC1 | 698 |
| COc1ccc(C(=O)NCC(=O)Nc2nc3ccccc3[nH]2)c(C)c1 | 630 |
| COc1c(C(=O)Nc2ccc(N3CCOCC3)cc2)sc2ccc(Cl)cc12 | 1110 |
| CN(C)c1ccc(CNC(=O)c2ccc3c(c2)N(C)C(=O)C2CCCCN32)cc1 (centres undefined) | 628 |
| COc1ccc(N2CCN(c3cc(SCC(=O)Nc4ccc(C)cc4Cl)ncn3)CC2)cc1 | 1200 |
| COc1ccc(-c2nc(NCCC(C)C)c3ccccc3n2)cc1 | 844 |
| Cc1cccc(OCC(=O)NC2CCN(Cc3c(C)noc3C)CC2)c1 | 622 |
| Cc1ccc(N(C)C(=O)C2CCCN2S(=O)(=O)c2cc3c(cc2C)NC(=O)C(C)O3)cc1 (centres undefined) | 814 |
| COc1cccc2cc(C(=O)Nc3nc(C)cs3)oc12 | 804 |
| COc1cc(OC)c(NC(=O)N2CCC(n3c(C)nc4cccnc43)CC2)cc1Cl | 711 |

| SMILES | RP-LC retention time [s] |
| --- | --- |
| CCOc1ccc(CC(=O)N2CCc3cc(-c4csc(C)n4)ccc32)cc1 | 1060 |
| CCN1CCCn2nc(C3CCN(C(=O)c4cccnc4SC)CC3)cc2C1=O | 649 |
| Cc1ccc(CNC(=O)c2ccc(-c3cncnc3)nc2)o1 | 678 |
| COC(=O)c1c2c(nc3ccccc13)CCN(C(=O)Nc1cc(OC)ccc1OC)C2 | 839 |
| Cc1cc(-c2nnc(C3CCC3)o2)c(C)n1CC(=O)Nc1ccc2c(c1)OCCO2 | 836 |
| Cc1nc(-c2nc3c(s2)CN(C(=O)COc2ccc(Cl)cc2)CC3)cs1 | 922 |
| CCNc1cc(N2CCC(CCC(=O)Nc3ccc(C)cc3C)CC2)ncn1 | 686 |
| CC1CCCN(c2nc(=O)n(CC(=O)Nc3ccc4c(c3)OCO4)c3ccccc23)C1 (centres undefined) | 796 |
| Cn1ncc(N2CCC(C(=O)NC3CCCC3)C2)cc1=O (centres undefined) | 630 |
| Cc1ccc(CC(=O)Nc2ccc(-c3nc(Cn4nc(C)cc4C)c(C)o3)cc2)cc1 | 559 |
| CC(=O)Oc1cc2c(C(=O)NCC3CCCO3)c(C)oc2c2ccccc12 (centres undefined) | 809 |
| Cn1c(=O)c(N2CCC(NC(=O)NCc3ccccc3)CC2)nc2ccccc21 | 799 |
| CC1CCN(C(=O)c2nc(CCS(=O)(=O)c3ccc(Cl)cc3)no2)CC1 | 974 |
| CC1CCN(C(=O)C2CCN(S(=O)(=O)c3cc(C(=O)N4CCCCC4)n(C)c3)CC2)CC1 | 803 |
| CCOC(=O)CNC(=O)N1CCCC1c1cccc(F)c1 (centres undefined) | 745 |
| COc1ccc(C(=S)N2CCN(c3ccccc3C)CC2)cc1 | 1260 |
| CCc1nc2ccc(-c3noc(C(C)NC(=O)c4ccco4)n3)cc2n1CC (centres undefined) | 621 |
| COCCC1CCN(C(=O)CN(C)C(=O)c2ccc3cc[nH]c3c2)CC1 | 686 |
| Cc1ccc2nc3c(C(=O)NC4CC4)cccn3c(=O)c2c1 | 942 |
| Cc1cc(N2CCN(C(=O)c3cccc(N(C)C)c3)CC2)nc2nnc(C)n12 | 557 |
| COc1ccc(C)cc1N(C)C(=O)C1CCCN(c2ncnc3c2nc2n3CCCCC2)C1 (centres undefined) | 869 |
| COc1ccc(NC(=O)Cn2cccc2-c2nnc(-c3ccccc3)o2)c(OC)c1 | 993 |
| CCOC(=O)C1=C(N)Oc2cc(C)n(CCN(C)C)c(=O)c2C1c1ccccc1 (centres undefined) | 572 |

| SMILES | RP-LC retention time [s] |
| --- | --- |
| CCOc1ccc(N2CCn3c2nn(CC(=O)c2ccc(OC)cc2)c(=O)c3=O)cc1 | 773 |
| Cc1ccc(-c2nc(-c3ccc4c(c3)ncn4CCN3CCOCC3)no2)c(C)c1 | 698 |
| CCN(CC)C(=O)c1sc2ncn(CC(=O)N3CCCCC3C)c(=O)c2c1C (centres undefined) | 752 |
| Cc1ccc(S(=O)(=O)Nc2ccc3c(c2)CCC(=O)N3C)cc1Cl | 1000 |
| CCOc1ccccc1NC(=O)N1CC(n2cnnc2-c2ccccc2)C1 | 722 |
| O=C(CN1CCC(c2nc(-c3cccc(F)c3)no2)CC1)NC1CCCCC1 | 705 |
| Cc1cc(C)n(Cc2ccc(C(=O)N3CCN(c4cc(=O)n(C(C)C)c(=O)n4C(C)C)CC3)o2)n1 | 772 |
| CN(CCCNC(=O)C1CCCN(c2ccc(N3CCOCC3)nn2)C1)c1ccccc1 (centres undefined) | 570 |
| Fc1ccc(CN2CCC3(CC2)N=C(C2CC2)NO3)cc1 | 583 |
| COc1cccc(NS(=O)(=O)c2cc3n(c2)CCN(CC(C)C)C3=O)c1 | 784 |
| O=C(CCCc1ccccc1)N1CCN(c2nc(CN3CCOCC3)cs2)CC1 | 639 |
| Cc1ccc(N2CC(c3noc(-c4cccc(Cl)c4)n3)CC2=O)cc1 (centres undefined) | 1090 |
| CCOc1ccc(-n2c(CN3CCN(C(=O)NCCC(C)C)CC3)nc3cccnc32)cc1 | 684 |
| Cc1ccccc1CNC(=O)C1(C)CCCN(C(=O)NC2CCCCC2)C1 (centres undefined) | 904 |
| COC(=O)c1cnc2nc(C)ccc2c1Nc1ccc2c(c1)OCCO2 | 652 |
| O=C(CCC1CCCN(S(=O)(=O)c2cccc(F)c2)C1)NCC1CC1 (centres undefined) | 822 |
| Cc1cc(C)cc(NC(=O)C2CCN(S(C)(=O)=O)c3ccccc3O2)c1 (centres undefined) | 976 |
| CCc1ccc(NC(=O)Nc2cccn3nc(C)nc23)cc1 | 869 |
| COC(=O)c1c(-c2cccc(Cl)c2)noc1NCc1ccccn1 | 897 |
| CCOc1ccc(C(=O)N2CCC3(C2)C(=O)Nc2ccccc23)cc1 (centres undefined) | 725 |
